Source: PubChem BioAssay AID248 (DTP/NCI, 2004)
Toxic doses and inconclusive results are not listed.

Tested on: L1210 leukemia ip in BDF1 mice, survival T/C
Assay: NCI In Vivo Anticancer Drug Screen. Data for tumor model L1210 Leukemia (intraperitoneal) in B6D2F1 (BDF1) mice
Conditions: endpoint: mean survival time, higher = longer survival
Outline: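 Tumor was transplanted into mice, which were then dosed with test compound or vehicle alone. Survival was recorded for each group, and the treated figure was expressed relative to the control figure.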

[1] = dose: 50.0 mg/kg/injection, schedule: Q01DX001 (ip), vehicle: carboxymethylcellulose (CMC)
[2] = dose: 100.0 mg/kg/injection, schedule: Q01DX001 (ip), vehicle: saline
[3] = dose: 200.0 mg/kg/injection, schedule: Q01DX001 (ip), vehicle: saline
[4] = dose: 300.0 mg/kg/injection, schedule: Q01DX001 (ip), vehicle: saline
[5] = dose: 400.0 mg/kg/injection, schedule: Q01DX001 (ip), vehicle: saline
[6] = dose: 100.0 mg/kg/injection, schedule: Q01DX001 (ip), vehicle: carboxymethylcellulose (CMC)
[7] = dose: 200.0 mg/kg/injection, schedule: Q01DX001 (ip), vehicle: carboxymethylcellulose (CMC)
[8] = dose: 400.0 mg/kg/injection, schedule: Q01DX001 (ip), vehicle: carboxymethylcellulose (CMC)
[9] = dose: 25.0 mg/kg/injection, schedule: Q01DX009 (ip), vehicle: saline
[10] = dose: 50.0 mg/kg/injection, schedule: Q01DX009 (ip), vehicle: saline
[11] = dose: 100.0 mg/kg/injection, schedule: Q01DX001 (ip), vehicle: Klucel (hydroxypropylcellulose) (HPC)
[12] = dose: 200.0 mg/kg/injection, schedule: Q01DX001 (ip), vehicle: Klucel (hydroxypropylcellulose) (HPC)
[13] = dose: 400.0 mg/kg/injection, schedule: Q01DX001 (ip), vehicle: Klucel (hydroxypropylcellulose) (HPC)
[14] = dose: 75.0 mg/kg/injection, schedule: Q01DX001 (ip), vehicle: saline
[15] = dose: 150.0 mg/kg/injection, schedule: Q01DX001 (ip), vehicle: saline
[16] = dose: 50.0 mg/kg/injection, schedule: Q01DX009 (ip), vehicle: saline with Tween-80
[17] = dose: 100.0 mg/kg/injection, schedule: Q01DX009 (ip), vehicle: saline with Tween-80

With `O=NN(CCCl)C(=O)N[C@@H]1CCCC[C@H]1NC(=O)N(CCCl)N=O` the T/C (dose: 25.0 mg/kg/injection, schedule: Q01DX001 (ip), vehicle: carboxymethylcellulose (CMC)) was 180 % of control, the T/C (dose: 37.5 mg/kg/injection, schedule: Q01DX001 (ip), vehicle: carboxymethylcellulose (CMC)) was 165 % of control and the T/C [1] was 215 % of control. The T/C (dose: 75.0 mg/kg/injection, schedule: Q01DX001 (ip), vehicle: carboxymethylcellulose (CMC)) was 260 % of control, the T/C [2] was 233 % of control and the T/C (dose: 150.0 mg/kg/injection, schedule: Q01DX001 (ip), vehicle: carboxymethylcellulose (CMC)) was 308 % of control. For the same compound, the T/C [3] was 106 % of control and the T/C [4] was 89 % of control.
In the case of `CN(C)CCCN1CCCCC1`, the T/C (dose: 50.0 mg/kg/injection, schedule: Q01DX001 (ip), vehicle: saline) is reported as 106 % of control, the T/C [2] is reported as 115 % of control and the T/C [3] is reported as 110 % of control. The T/C [5] was 104 % of control.
In the case of `CCCCCCc1cc(CN(C2CCCCC2)C2CCCCC2)c(O)cc1O`, the T/C [2] is reported as 92 % of control and the T/C [5] is reported as 87 % of control.
In the case of `Cc1cccc(NC(=O)Cc2ccccc2)c1C`, the T/C (dose: 100.0 mg/kg/injection, schedule: Q04DX002 (ip), vehicle: saline) is reported as 99 % of control, the T/C (dose: 200.0 mg/kg/injection, schedule: Q04DX002 (ip), vehicle: saline) is reported as 105 % of control and the T/C (dose: 400.0 mg/kg/injection, schedule: Q04DX002 (ip), vehicle: saline) is reported as 101 % of control.
In the case of `CCOC(=O)CC(CC(=O)OCC)NC(=O)c1ccc(N(C)Cc2ccccc2)cc1`, the T/C [6] is reported as 107 % of control, the T/C [7] is reported as 108 % of control and the T/C [8] is reported as 105 % of control.
For `CCC(O)C[As](=O)(O)c1ccccc1` (configuration not stated), the T/C (dose: 1.56 mg/kg/injection, schedule: Q04DX003 (ip), vehicle: saline) was 94 % of control, the T/C (dose: 3.13 mg/kg/injection, schedule: Q04DX003 (ip), vehicle: saline) was 105 % of control and the T/C (dose: 6.25 mg/kg/injection, schedule: Q04DX003 (ip), vehicle: saline) was 96 % of control.
With `O=C(O)CCC(=O)NCCN(CCNC(=O)CCC(=O)O)C(=O)CCC(=O)O` the T/C (dose: 100.0 mg/kg/injection, schedule: Q01DX001 (ip), vehicle: other) was 105 % of control, the T/C (dose: 100.0 mg/kg/injection, schedule: Q01DX009 (ip), vehicle: water) was 100 % of control and the T/C (dose: 100.0 mg/kg/injection, schedule: Q04DX003 (ip), vehicle: water) was 105 % of control. The T/C (dose: 200.0 mg/kg/injection, schedule: Q01DX001 (ip), vehicle: other) was 100 % of control, the T/C (dose: 200.0 mg/kg/injection, schedule: Q01DX009 (ip), vehicle: water) was 97 % of control and the T/C (dose: 200.0 mg/kg/injection, schedule: Q04DX003 (ip), vehicle: water) was 98 % of control. The T/C (dose: 400.0 mg/kg/injection, schedule: Q01DX001 (ip), vehicle: other) was 98 % of control, the T/C (dose: 400.0 mg/kg/injection, schedule: Q01DX009 (ip), vehicle: water) was 97 % of control and the T/C (dose: 400.0 mg/kg/injection, schedule: Q04DX003 (ip), vehicle: water) was 102 % of control.
In the case of `CN(CC#N)CC#N`, the T/C [9] is reported as 105 % of control and the T/C [10] is reported as 95 % of control.
For `CC(=O)Oc1ccc(C2CC(=O)N(CCN(C)C)C2=O)cc1` (configuration not stated), the T/C [2] was 107 % of control, the T/C [3] was 90 % of control and the T/C [5] was 100 % of control.
`O=C(Nc1cccc(S(=O)(=O)F)c1)/C(=C/c1ccc([N+](=O)[O-])cc1)c1ccccc1` was tested, and the T/C [11] was 89 % of control, the T/C [12] was 99 % of control and the T/C [13] was 99 % of control.
For `N=C(N)C[n+]1ccccc1`, the T/C [2] was 98 % of control, the T/C (dose: 100.0 mg/kg/injection, schedule: Q04DX003 (ip), vehicle: saline) was 95 % of control and the T/C [3] was 109 % of control. For the same compound, the T/C (dose: 200.0 mg/kg/injection, schedule: Q04DX003 (ip), vehicle: saline) was 111 % of control, the T/C [5] was 104 % of control and the T/C (dose: 400.0 mg/kg/injection, schedule: Q04DX003 (ip), vehicle: saline) was 89 % of control.
For `O=C(Nc1ccccc1)C(=O)c1ccccc1`, the T/C [11] was 98 % of control, the T/C [12] was 93 % of control and the T/C [13] was 106 % of control.
In the case of `CC(CCC(=O)O)(c1cc(Br)c(O)c(Br)c1)c1cc(Br)c(O)c(Br)c1`, the T/C (dose: 100.0 mg/kg/injection, schedule: Q01DX009 (ip), vehicle: saline) is reported as 93 % of control, the T/C (dose: 100.0 mg/kg/injection, schedule: Q04DX003 (ip), vehicle: other) is reported as 102 % of control and the T/C (dose: 200.0 mg/kg/injection, schedule: Q01DX009 (ip), vehicle: saline) is reported as 95 % of control. For the same compound, the T/C (dose: 200.0 mg/kg/injection, schedule: Q04DX003 (ip), vehicle: other) was 102 % of control, the T/C (dose: 400.0 mg/kg/injection, schedule: Q01DX009 (ip), vehicle: saline) was 87 % of control and the T/C (dose: 400.0 mg/kg/injection, schedule: Q04DX003 (ip), vehicle: other) was 109 % of control.
For `CC(C)/C=C/C1(C(C)C)C(=O)NC(=S)NC1=O`, the T/C [14] was 95 % of control, the T/C [15] was 100 % of control and the T/C [4] was 98 % of control.
In the case of `Cc1cc([N+](=O)[O-])c(C)cc1O`, the T/C [14] is reported as 91 % of control and the T/C [15] is reported as 94 % of control.
`Cc1ccc(S(=O)(=O)N(C)c2cc(Cl)c(I)c(Cl)c2)cc1` was tested, and the T/C (dose: 100.0 mg/kg/injection, schedule: Q01DX009 (ip), vehicle: Klucel (hydroxypropylcellulose) (HPC)) was 98 % of control, the T/C (dose: 200.0 mg/kg/injection, schedule: Q01DX009 (ip), vehicle: Klucel (hydroxypropylcellulose) (HPC)) was 94 % of control and the T/C (dose: 400.0 mg/kg/injection, schedule: Q01DX009 (ip), vehicle: Klucel (hydroxypropylcellulose) (HPC)) was 96 % of control.
For `Nc1ccc(C(=O)Nc2ccc(NC(=O)Nc3ccc(NC(=O)c4ccc(N)cc4)c(S(=O)(=O)O)c3)cc2S(=O)(=O)O)cc1`, the T/C (dose: 60.0 mg/kg/injection, schedule: Q01DX Z (ip), vehicle: carboxymethylcellulose (CMC)) was 96 % of control, the T/C (dose: 120.0 mg/kg/injection, schedule: Q01DX Z (ip), vehicle: carboxymethylcellulose (CMC)) was 98 % of control and the T/C (dose: 240.0 mg/kg/injection, schedule: Q01DX Z (ip), vehicle: carboxymethylcellulose (CMC)) was 95 % of control. For the same compound, the T/C (dose: 240.0 mg/kg/injection, schedule: Q01DX Z (oral), vehicle: carboxymethylcellulose (CMC)) was 106 % of control, the T/C (dose: 480.0 mg/kg/injection, schedule: Q01DX Z (ip), vehicle: carboxymethylcellulose (CMC)) was 95 % of control and the T/C (dose: 480.0 mg/kg/injection, schedule: Q01DX Z (oral), vehicle: carboxymethylcellulose (CMC)) was 112 % of control. The T/C (dose: 960.0 mg/kg/injection, schedule: Q01DX Z (oral), vehicle: carboxymethylcellulose (CMC)) was 93 % of control.
For `CSc1ccc(NC(=O)C(F)(F)F)cc1`, the T/C [1] was 97 % of control, the T/C [6] was 92 % of control and the T/C [7] was 97 % of control. For the same compound, the T/C [8] was 95 % of control.
`COc1cccc2c(=O)c(COC(C)=O)c(C)[nH]c12` was tested, and the T/C (dose: 12.5 mg/kg/injection, schedule: Q01DX009 (ip), vehicle: saline with Tween-80) was 100 % of control, the T/C (dose: 25.0 mg/kg/injection, schedule: Q01DX009 (ip), vehicle: saline with Tween-80) was 100 % of control and the T/C [16] was 98 % of control. The T/C [17] was 106 % of control.
In the case of `Cc1nc(N)nc2c1CCC(O)S2` (configuration not stated), the T/C (dose: 50.0 mg/kg/injection, schedule: Q01DX001 (ip), vehicle: Klucel (hydroxypropylcellulose) (HPC)) is reported as 89 % of control and the T/C [12] is reported as 86 % of control.
In the case of `c1ccc(-c2cc3c(-c4ccccc4)c4ccccc4c(-c4ccccc4)c3cc2-c2ccccc2)cc1`, the T/C [16] is reported as 96 % of control, the T/C [17] is reported as 96 % of control and the T/C (dose: 200.0 mg/kg/injection, schedule: Q01DX009 (ip), vehicle: saline with Tween-80) is reported as 108 % of control.
For `C=C(C1CC1)C1(CC)C(=O)NC(=S)NC1=O`, the T/C (dose: 75.0 mg/kg/injection, schedule: Q01DX001 (ip), vehicle: other) was 102 % of control, the T/C (dose: 150.0 mg/kg/injection, schedule: Q01DX001 (ip), vehicle: other) was 113 % of control and the T/C (dose: 300.0 mg/kg/injection, schedule: Q01DX001 (ip), vehicle: other) was 94 % of control.
In the case of `C=C(Br)CN=C=S`, the T/C (dose: 12.5 mg/kg/injection, schedule: Q01DX009 (ip), vehicle: saline) is reported as 96 % of control, the T/C [9] is reported as 104 % of control and the T/C [10] is reported as 102 % of control.
With `Nc1nc(N)c(-c2ccc(Cl)cc2)c(C(F)(F)F)n1` the T/C (dose: 75.0 mg/kg/injection, schedule: Q01DX001 (ip), vehicle: saline with Tween-80) was 95 % of control, the T/C (dose: 150.0 mg/kg/injection, schedule: Q01DX001 (ip), vehicle: saline with Tween-80) was 100 % of control and the T/C (dose: 300.0 mg/kg/injection, schedule: Q01DX001 (ip), vehicle: saline with Tween-80) was 92 % of control.
